# Key:
# [1] = Stability testing of ^212Pb-labeled ligands in vitro (TLC radiochemical purity in PBS and FBS); type: physicochemical; settings: 37° C.
# Method: Thin layer chromatography (TLC) was performed using chromatography strips (model #150-772, Biodex Medical Systems Inc, Shirley, N.Y., USA). A formulation buffer (FB) consisting of 7.5% human serum albumin and 5 mM EDTA in DPBS and adjusted to approximately pH 7 with NaOH was mixed with the antibody conjugates in ratio 2:1 for at least 5 minutes before application to the strips to determine free radionuclide. A small beaker with about 0.5 ml of 0.9% NaCl was used to place strips with a sample spot in. To the strip was typically added 1-4 μl of sample at approximately 10% above the bottom of the strip. After the solvent front had moved to about 20% from the top of the strip, the strip was cut in half and each half was placed in a 5 ml test tube for counting. In this system radiolabeled ligand stays at the bottom half while radionuclide complexed with EDTA migrates to the upper half. It was verified that free cations of both ^212Pb and ^177Lu would complex with EDTA and moved to the top.
# TLC analyses were performed at 1 h, 4 h, 24 h and 48 h of incubation. […]
# PSMA-positive xenografts = test: Biodistribution of single targeting solution (purified ^212Pb-ligand) in mice with PSMA-positive xenografts; type: in vivo
# Method: Using a ^212Pb/^224Ra solution for reaction with p-SCN-Bn-TCMC-PSMA ligand 1 as described, purified ^212Pb-p-SCN-Bn-TCMC-PSMA ligand 1 was purified using a Sephadex G-10 gel filtration column and about 30 kBq and 300 ng of the purified radioligand product was injected per animal. […] The tumor-to-tissue ratios (Table 4) indicates suitability for radioligand targeting with ^212Pb.
structure (smiles),measurement,setting,value
NC(=O)CN1CCN(CC(N)=O)CCN(CC(N)=O)C(Cc2ccc(NC(=S)NCC3CCC(C(=O)NC(Cc4ccc5ccccc5c4)C(=O)NCCCCC(NC(=O)NC(CCC(=O)O)C(=O)O)C(=O)O)CC3)cc2)CN(CC(N)=O)CC1.[212Pb+2] (centres unmarked) [^212Pb-p-SCN-Bn-TCMC-PSMA ligand 1],Radiochemical purity,"[1]; FBS, 1 h since start of incubation, in ^224Ra/^212Pb solution",93.50%
same,Radiochemical purity,"[1]; FBS, 4 h",94.18%
same,Radiochemical purity,"[1]; FBS, 24 h",93.54%
same,Radiochemical purity,"[1]; FBS, 48 h",90.81%
same,Radiochemical purity,"[1]; PBS, 1 h since start of incubation, in ^224Ra/^212Pb solution",93.26%
same,Radiochemical purity,"[1]; PBS, 4 h",95.04%
same,Radiochemical purity,"[1]; PBS, 24 h",95.00%
same,Radiochemical purity,"[1]; PBS, 48 h",95.11%
same,Tumor/Femur ratio,PSMA-positive xenografts; 1 h,30.4
same,Tumor/blood ratio,PSMA-positive xenografts; 1 h,14.9
same,Tumor/kidneys ratio,PSMA-positive xenografts; 1 h,0.41
same,Tumor/muscle ratio,PSMA-positive xenografts; 1 h,42.6
same,Tumor/Femur ratio,PSMA-positive xenografts; 2 h,39.7
same,Tumor/blood ratio,PSMA-positive xenografts; 2 h,29.4
same,Tumor/kidneys ratio,PSMA-positive xenografts; 2 h,0.62
same,Tumor/muscle ratio,PSMA-positive xenografts; 2 h,72.1
same,Tumor/Femur ratio,PSMA-positive xenografts; 4 h,24.8
same,Tumor/blood ratio,PSMA-positive xenografts; 4 h,30.7
same,Tumor/kidneys ratio,PSMA-positive xenografts; 4 h,1.54
same,Tumor/muscle ratio,PSMA-positive xenografts; 4 h,61.5
same,Tumor/Femur ratio,PSMA-positive xenografts; 8 h,19.8
same,Tumor/blood ratio,PSMA-positive xenografts; 8 h,112.7
same,Tumor/kidneys ratio,PSMA-positive xenografts; 8 h,3.60
same,Tumor/muscle ratio,PSMA-positive xenografts; 8 h,366.2
same,"Biodistribution, Bladder",PSMA-positive xenografts; 1 h post injection,36.86 % ID/g
same,"Biodistribution, Bladder",PSMA-positive xenografts; 2 h post injection,6.85 % ID/g
same,"Biodistribution, Bladder",PSMA-positive xenografts; 4 h post injection,3.53 % ID/g
same,"Biodistribution, Bladder",PSMA-positive xenografts; 8 h post injection,0.26 % ID/g
same,"Biodistribution, Blood",PSMA-positive xenografts; 1 h post injection,1.77 % ID/g
same,"Biodistribution, Blood",PSMA-positive xenografts; 2 h post injection,0.54 % ID/g
same,"Biodistribution, Blood",PSMA-positive xenografts; 4 h post injection,0.46 % ID/g
same,"Biodistribution, Blood",PSMA-positive xenografts; 8 h post injection,0.13 % ID/g
same,"Biodistribution, Brain",PSMA-positive xenografts; 1 h post injection,0.61 % ID/g
same,"Biodistribution, Brain",PSMA-positive xenografts; 2 h post injection,0.04 % ID/g
same,"Biodistribution, Brain",PSMA-positive xenografts; 4 h post injection,0.07 % ID/g
same,"Biodistribution, Brain",PSMA-positive xenografts; 8 h post injection,0.02 % ID/g
same,"Biodistribution, Femur",PSMA-positive xenografts; 1 h post injection,0.87 % ID/g
same,"Biodistribution, Femur",PSMA-positive xenografts; 2 h post injection,0.40 % ID/g
same,"Biodistribution, Femur",PSMA-positive xenografts; 4 h post injection,0.57 % ID/g
same,"Biodistribution, Femur",PSMA-positive xenografts; 8 h post injection,0.74 % ID/g
same,"Biodistribution, Heart",PSMA-positive xenografts; 1 h post injection,0.78 % ID/g
same,"Biodistribution, Heart",PSMA-positive xenografts; 2 h post injection,0.20 % ID/g
same,"Biodistribution, Heart",PSMA-positive xenografts; 4 h post injection,0.52 % ID/g
same,"Biodistribution, Heart",PSMA-positive xenografts; 8 h post injection,0.09 % ID/g
same,"Biodistribution, Kidneys",PSMA-positive xenografts; 1 h post injection,63.96 % ID/g
same,"Biodistribution, Kidneys",PSMA-positive xenografts; 2 h post injection,25.41 % ID/g
same,"Biodistribution, Kidneys",PSMA-positive xenografts; 4 h post injection,9.19 % ID/g
same,"Biodistribution, Kidneys",PSMA-positive xenografts; 8 h post injection,4.07 % ID/g
same,"Biodistribution, Large intestine",PSMA-positive xenografts; 1 h post injection,0.25 % ID/g
same,"Biodistribution, Large intestine",PSMA-positive xenografts; 2 h post injection,0.39 % ID/g
same,"Biodistribution, Large intestine",PSMA-positive xenografts; 4 h post injection,0.18 % ID/g
same,"Biodistribution, Large intestine",PSMA-positive xenografts; 8 h post injection,0.17 % ID/g
same,"Biodistribution, Liver",PSMA-positive xenografts; 1 h post injection,2.39 % ID/g
same,"Biodistribution, Liver",PSMA-positive xenografts; 2 h post injection,1.33 % ID/g
same,"Biodistribution, Liver",PSMA-positive xenografts; 4 h post injection,1.55 % ID/g
same,"Biodistribution, Liver",PSMA-positive xenografts; 8 h post injection,1.25 % ID/g
same,"Biodistribution, Lungs",PSMA-positive xenografts; 1 h post injection,1.19 % ID/g
same,"Biodistribution, Lungs",PSMA-positive xenografts; 2 h post injection,0.40 % ID/g
same,"Biodistribution, Lungs",PSMA-positive xenografts; 4 h post injection,0.75 % ID/g
same,"Biodistribution, Lungs",PSMA-positive xenografts; 8 h post injection,0.17 % ID/g
same,"Biodistribution, Muscle",PSMA-positive xenografts; 1 h post injection,0.62 % ID/g
same,"Biodistribution, Muscle",PSMA-positive xenografts; 2 h post injection,0.22 % ID/g
same,"Biodistribution, Muscle",PSMA-positive xenografts; 4 h post injection,0.23 % ID/g
same,"Biodistribution, Muscle",PSMA-positive xenografts; 8 h post injection,0.04 % ID/g
same,"Biodistribution, Prostate",PSMA-positive xenografts; 1 h post injection,13.95 % ID/g
same,"Biodistribution, Prostate",PSMA-positive xenografts; 2 h post injection,3.80 % ID/g
same,"Biodistribution, Prostate",PSMA-positive xenografts; 4 h post injection,1.48 % ID/g
same,"Biodistribution, Prostate",PSMA-positive xenografts; 8 h post injection,−0.10 % ID/g
same,"Biodistribution, Salivary gland",PSMA-positive xenografts; 1 h post injection,0.72 % ID/g
same,"Biodistribution, Salivary gland",PSMA-positive xenografts; 2 h post injection,0.32 % ID/g
same,"Biodistribution, Salivary gland",PSMA-positive xenografts; 4 h post injection,0.34 % ID/g
same,"Biodistribution, Salivary gland",PSMA-positive xenografts; 8 h post injection,0.15 % ID/g
same,"Biodistribution, Skin",PSMA-positive xenografts; 1 h post injection,1.70 % ID/g
same,"Biodistribution, Skin",PSMA-positive xenografts; 2 h post injection,0.47 % ID/g
same,"Biodistribution, Skin",PSMA-positive xenografts; 4 h post injection,0.42 % ID/g
same,"Biodistribution, Skin",PSMA-positive xenografts; 8 h post injection,0.23 % ID/g
same,"Biodistribution, Skull",PSMA-positive xenografts; 1 h post injection,0.77 % ID/g
same,"Biodistribution, Skull",PSMA-positive xenografts; 2 h post injection,0.38 % ID/g
same,"Biodistribution, Skull",PSMA-positive xenografts; 4 h post injection,0.37 % ID/g
same,"Biodistribution, Skull",PSMA-positive xenografts; 8 h post injection,0.63 % ID/g
same,"Biodistribution, Small intestine",PSMA-positive xenografts; 1 h post injection,0.34 % ID/g
same,"Biodistribution, Small intestine",PSMA-positive xenografts; 2 h post injection,0.23 % ID/g
same,"Biodistribution, Small intestine",PSMA-positive xenografts; 4 h post injection,0.30 % ID/g
same,"Biodistribution, Small intestine",PSMA-positive xenografts; 8 h post injection,0.08 % ID/g
same,"Biodistribution, Spleen",PSMA-positive xenografts; 1 h post injection,1.24 % ID/g
same,"Biodistribution, Spleen",PSMA-positive xenografts; 2 h post injection,0.44 % ID/g
same,"Biodistribution, Spleen",PSMA-positive xenografts; 4 h post injection,0.54 % ID/g
same,"Biodistribution, Spleen",PSMA-positive xenografts; 8 h post injection,0.36 % ID/g
same,"Biodistribution, Stomach",PSMA-positive xenografts; 1 h post injection,0.16 % ID/g
same,"Biodistribution, Stomach",PSMA-positive xenografts; 2 h post injection,0.22 % ID/g
same,"Biodistribution, Stomach",PSMA-positive xenografts; 4 h post injection,0.10 % ID/g
same,"Biodistribution, Stomach",PSMA-positive xenografts; 8 h post injection,0.09 % ID/g
same,"Biodistribution, Testes",PSMA-positive xenografts; 1 h post injection,4.41 % ID/g
same,"Biodistribution, Testes",PSMA-positive xenografts; 2 h post injection,0.56 % ID/g
same,"Biodistribution, Testes",PSMA-positive xenografts; 4 h post injection,0.38 % ID/g
same,"Biodistribution, Testes",PSMA-positive xenografts; 8 h post injection,0.12 % ID/g
same,"Biodistribution, Tumor",PSMA-positive xenografts; 1 h post injection,26.44 % ID/g
same,"Biodistribution, Tumor",PSMA-positive xenografts; 2 h post injection,15.87 % ID/g
same,"Biodistribution, Tumor",PSMA-positive xenografts; 4 h post injection,14.14 % ID/g
same,"Biodistribution, Tumor",PSMA-positive xenografts; 8 h post injection,14.65 % ID/g
same,"Biodistribution, Urine",PSMA-positive xenografts; 1 h post injection,253.36 % ID/g
same,"Biodistribution, Urine",PSMA-positive xenografts; 2 h post injection,250.85 % ID/g
same,"Biodistribution, Urine",PSMA-positive xenografts; 4 h post injection,32.12 % ID/g
same,"Biodistribution, Urine",PSMA-positive xenografts; 8 h post injection,6.76 % ID/g

# From US10377778B2, “Lead and thorium compounds” (Sciencons AS, priority 2017, dated 2019)
